Measurements: publication PMC8429728, “TNK1 is a ubiquitin-binding and 14-3-3-regulated kinase that can be targeted to block tumor growth” (Nature Communications, 2021)
Read-outs that look alike come from different tables or passages of the source.

Experiments:
Assay in all cases: biochemical
Parameters in all cases: Reaction Biology 371-kinase panel at Km ATP, per cent enzyme activity relative to DMSO, single dose in duplicate
CK1a1L = target: T1, CK1a1L (Homo sapiens, UniProt Q8N752); conditions: duplicate measurements, Km ATP
T1 construct: gene CSNK1A1L
T1 sequence (Q8N752 whole entry): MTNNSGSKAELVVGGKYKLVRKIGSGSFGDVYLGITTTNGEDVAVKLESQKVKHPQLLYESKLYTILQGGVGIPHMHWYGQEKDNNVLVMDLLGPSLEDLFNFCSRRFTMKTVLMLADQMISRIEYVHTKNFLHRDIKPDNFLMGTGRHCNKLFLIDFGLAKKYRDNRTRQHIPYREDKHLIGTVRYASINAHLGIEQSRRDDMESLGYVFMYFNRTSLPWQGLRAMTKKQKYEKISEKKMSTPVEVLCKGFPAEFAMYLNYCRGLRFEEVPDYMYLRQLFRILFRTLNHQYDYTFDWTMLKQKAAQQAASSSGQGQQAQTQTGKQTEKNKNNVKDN
Procedure: (§1) To assess kinase selectivity, we screened TP-5801 (300 nM) against a panel of 371 kinases in vitro. […] In addition to TNK1, only 7 other kinases were inhibited by more than 90% (Supplementary Fig. 8 and Supplementary Data 2). […] The resulting % Enzyme activity (relative to DMSO controls) were plotted in GraphPad and IC50 values were determined by sigmoidal dose-response (variable slope) curve fits, with a bottom constraint of 0.

TRKC = target: T2, TRKC (Homo sapiens, UniProt Q16288); conditions: duplicate measurements, Km ATP
T2 construct: gene NTRK3
Procedure: as §1

LCK = LCK (Homo sapiens, UniProt P06239); conditions: duplicate measurements, Km ATP
Procedure: as §1

ITK = ITK (Homo sapiens, UniProt Q08881); conditions: duplicate measurements, Km ATP
Sequence of ITK (Q08881 whole entry): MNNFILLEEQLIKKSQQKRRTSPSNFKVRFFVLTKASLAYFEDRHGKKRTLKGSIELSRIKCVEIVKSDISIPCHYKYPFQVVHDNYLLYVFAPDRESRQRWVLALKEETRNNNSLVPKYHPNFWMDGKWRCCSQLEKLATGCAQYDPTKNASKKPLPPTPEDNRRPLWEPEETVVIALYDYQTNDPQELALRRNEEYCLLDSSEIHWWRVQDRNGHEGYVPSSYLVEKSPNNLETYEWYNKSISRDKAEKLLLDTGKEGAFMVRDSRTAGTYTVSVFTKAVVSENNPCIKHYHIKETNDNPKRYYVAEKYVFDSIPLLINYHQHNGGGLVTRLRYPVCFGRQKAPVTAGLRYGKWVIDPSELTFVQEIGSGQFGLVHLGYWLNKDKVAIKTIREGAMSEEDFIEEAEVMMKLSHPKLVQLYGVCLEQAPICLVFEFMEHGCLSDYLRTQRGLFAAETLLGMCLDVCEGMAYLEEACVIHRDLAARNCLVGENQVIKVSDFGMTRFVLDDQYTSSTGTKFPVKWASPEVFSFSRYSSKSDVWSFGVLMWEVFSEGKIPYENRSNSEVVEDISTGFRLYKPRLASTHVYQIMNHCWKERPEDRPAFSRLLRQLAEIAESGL
Procedure: as §1

ARK5/NUAK1 = ARK5/NUAK1 (Homo sapiens, UniProt O60285); conditions: duplicate measurements, Km ATP; read-out: % Enzyme Activity (relative to DMSO controls) / TP-0005801 (0.3µM) / Data 1
Procedure: as §1

NEK7 = NEK7 (Homo sapiens, UniProt Q8TDX7); conditions: duplicate measurements, Km ATP
Sequence of NEK7 (Q8TDX7 whole entry): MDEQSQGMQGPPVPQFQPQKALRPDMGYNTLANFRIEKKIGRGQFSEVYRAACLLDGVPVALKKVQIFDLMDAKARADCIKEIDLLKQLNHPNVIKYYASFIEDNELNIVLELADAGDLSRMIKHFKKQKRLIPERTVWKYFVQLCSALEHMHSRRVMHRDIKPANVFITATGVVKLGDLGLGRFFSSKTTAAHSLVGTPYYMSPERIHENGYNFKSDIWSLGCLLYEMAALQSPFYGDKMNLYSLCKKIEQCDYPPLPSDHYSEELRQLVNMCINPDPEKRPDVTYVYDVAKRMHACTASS
Procedure: as §1

ZAK/MLTK = target: T3, ZAK/MLTK (Homo sapiens, UniProt Q9NYL2); conditions: duplicate measurements, Km ATP
T3 construct: gene MAP3K20
T3 sequence (Q9NYL2 whole entry): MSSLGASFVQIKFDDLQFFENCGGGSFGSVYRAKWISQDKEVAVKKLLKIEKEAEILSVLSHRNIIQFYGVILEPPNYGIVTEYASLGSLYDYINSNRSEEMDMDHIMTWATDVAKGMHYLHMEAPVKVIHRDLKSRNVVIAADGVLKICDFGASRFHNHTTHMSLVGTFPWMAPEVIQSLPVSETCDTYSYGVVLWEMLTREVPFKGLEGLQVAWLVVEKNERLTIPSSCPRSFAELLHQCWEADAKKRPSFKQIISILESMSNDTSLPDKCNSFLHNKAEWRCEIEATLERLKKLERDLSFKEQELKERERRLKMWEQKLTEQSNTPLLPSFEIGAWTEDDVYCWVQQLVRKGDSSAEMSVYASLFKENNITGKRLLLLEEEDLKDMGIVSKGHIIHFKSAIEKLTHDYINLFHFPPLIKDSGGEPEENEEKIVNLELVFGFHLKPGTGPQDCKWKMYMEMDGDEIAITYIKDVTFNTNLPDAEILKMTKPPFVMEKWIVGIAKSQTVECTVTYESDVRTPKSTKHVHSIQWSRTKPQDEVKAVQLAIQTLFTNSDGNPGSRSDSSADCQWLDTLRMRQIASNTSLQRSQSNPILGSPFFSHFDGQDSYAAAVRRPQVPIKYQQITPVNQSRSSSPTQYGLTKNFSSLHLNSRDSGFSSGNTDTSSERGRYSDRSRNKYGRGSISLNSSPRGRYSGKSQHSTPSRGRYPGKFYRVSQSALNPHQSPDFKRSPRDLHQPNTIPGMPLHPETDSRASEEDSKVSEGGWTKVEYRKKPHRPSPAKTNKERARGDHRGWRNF
Procedure: as §1

FGFR3 = FGFR3 (Homo sapiens, UniProt P22607); conditions: duplicate measurements, Km ATP
Procedure: as §1

CK1d = target: T4, CK1d (Homo sapiens, UniProt P48730); conditions: duplicate measurements, Km ATP
T4 construct: gene CSNK1D
T4 sequence (P48730 whole entry): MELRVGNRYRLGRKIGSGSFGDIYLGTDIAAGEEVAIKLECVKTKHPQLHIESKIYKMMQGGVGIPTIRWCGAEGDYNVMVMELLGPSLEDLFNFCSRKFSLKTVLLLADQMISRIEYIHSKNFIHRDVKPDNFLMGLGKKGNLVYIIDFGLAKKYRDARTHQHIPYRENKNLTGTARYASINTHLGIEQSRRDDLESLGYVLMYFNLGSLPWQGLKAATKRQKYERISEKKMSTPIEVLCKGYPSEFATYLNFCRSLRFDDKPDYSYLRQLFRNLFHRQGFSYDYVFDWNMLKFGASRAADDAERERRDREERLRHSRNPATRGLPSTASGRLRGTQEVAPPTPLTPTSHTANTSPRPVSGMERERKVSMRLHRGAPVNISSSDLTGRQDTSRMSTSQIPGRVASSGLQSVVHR
Procedure: as §1

FLT4/VEGFR3 = FLT4/VEGFR3 (Homo sapiens, UniProt P35916); conditions: duplicate measurements, Km ATP
Procedure: as §1

NEK5 = NEK5 (Homo sapiens, UniProt Q6P3R8); conditions: duplicate measurements, Km ATP
Sequence of NEK5 (Q6P3R8 whole entry): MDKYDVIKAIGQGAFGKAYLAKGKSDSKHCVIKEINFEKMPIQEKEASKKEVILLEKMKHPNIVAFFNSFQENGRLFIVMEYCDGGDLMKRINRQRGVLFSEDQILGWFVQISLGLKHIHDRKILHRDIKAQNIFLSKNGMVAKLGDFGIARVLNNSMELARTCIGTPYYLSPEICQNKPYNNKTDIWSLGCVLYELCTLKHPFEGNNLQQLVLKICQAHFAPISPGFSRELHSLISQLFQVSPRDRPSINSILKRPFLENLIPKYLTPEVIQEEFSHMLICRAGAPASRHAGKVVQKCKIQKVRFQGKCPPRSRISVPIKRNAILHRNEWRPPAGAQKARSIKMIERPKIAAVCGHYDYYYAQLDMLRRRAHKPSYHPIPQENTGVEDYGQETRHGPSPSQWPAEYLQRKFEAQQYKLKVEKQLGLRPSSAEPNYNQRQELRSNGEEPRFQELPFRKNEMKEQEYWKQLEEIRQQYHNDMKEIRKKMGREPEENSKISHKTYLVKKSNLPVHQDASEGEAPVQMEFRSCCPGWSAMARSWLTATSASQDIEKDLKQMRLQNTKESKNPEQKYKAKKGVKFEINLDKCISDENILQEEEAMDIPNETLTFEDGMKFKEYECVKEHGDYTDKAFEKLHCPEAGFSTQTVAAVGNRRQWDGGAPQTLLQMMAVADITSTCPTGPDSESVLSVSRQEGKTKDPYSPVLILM
Procedure: as §1

FGFR1 = FGFR1 (Homo sapiens, UniProt P11362); conditions: duplicate measurements, Km ATP
Procedure: as §1

TAK1 = target: T5, TAK1 (Homo sapiens, UniProt O43318); conditions: duplicate measurements, Km ATP
T5 construct: gene MAP3K7
T5 sequence (O43318 whole entry): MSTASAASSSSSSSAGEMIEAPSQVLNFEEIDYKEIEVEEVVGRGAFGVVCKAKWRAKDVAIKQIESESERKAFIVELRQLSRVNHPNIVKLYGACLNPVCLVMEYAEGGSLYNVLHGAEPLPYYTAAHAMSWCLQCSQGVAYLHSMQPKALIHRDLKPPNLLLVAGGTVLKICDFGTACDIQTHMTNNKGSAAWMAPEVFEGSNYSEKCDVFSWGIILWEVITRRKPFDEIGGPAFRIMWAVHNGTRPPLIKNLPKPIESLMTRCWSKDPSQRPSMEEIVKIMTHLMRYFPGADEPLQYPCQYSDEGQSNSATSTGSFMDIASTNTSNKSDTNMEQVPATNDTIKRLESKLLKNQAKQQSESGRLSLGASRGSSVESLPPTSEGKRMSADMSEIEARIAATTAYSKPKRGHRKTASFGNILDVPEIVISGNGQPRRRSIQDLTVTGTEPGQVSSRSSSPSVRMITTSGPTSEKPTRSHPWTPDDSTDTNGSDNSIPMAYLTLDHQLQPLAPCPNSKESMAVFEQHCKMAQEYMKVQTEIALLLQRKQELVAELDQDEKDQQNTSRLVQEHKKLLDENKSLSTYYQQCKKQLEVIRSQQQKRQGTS
Procedure: as §1

HGK/MAP4K4 = HGK/MAP4K4 (Homo sapiens, UniProt O95819); conditions: duplicate measurements, Km ATP
Procedure: as §1

CAMK2a = CAMK2a (Homo sapiens, UniProt Q9UQM7); conditions: duplicate measurements, Km ATP
Procedure: as §1

CLK4 = CLK4 (Homo sapiens, UniProt Q9HAZ1); conditions: duplicate measurements, Km ATP
Procedure: as §1

DYRK3 = DYRK3 (Homo sapiens, UniProt O43781); conditions: duplicate measurements, Km ATP
Procedure: as §1

CDK1/cyclin B = CDK1/cyclin B (Homo sapiens, UniProt P06493); conditions: duplicate measurements, Km ATP; read-out: % Enzyme Activity (relative to DMSO controls) / TP-0005801 (0.3µM) / Data 1
Procedure: as §1

PLK1 = PLK1 (Homo sapiens, UniProt P53350); conditions: duplicate measurements, Km ATP
Sequence of PLK1 (P53350 whole entry): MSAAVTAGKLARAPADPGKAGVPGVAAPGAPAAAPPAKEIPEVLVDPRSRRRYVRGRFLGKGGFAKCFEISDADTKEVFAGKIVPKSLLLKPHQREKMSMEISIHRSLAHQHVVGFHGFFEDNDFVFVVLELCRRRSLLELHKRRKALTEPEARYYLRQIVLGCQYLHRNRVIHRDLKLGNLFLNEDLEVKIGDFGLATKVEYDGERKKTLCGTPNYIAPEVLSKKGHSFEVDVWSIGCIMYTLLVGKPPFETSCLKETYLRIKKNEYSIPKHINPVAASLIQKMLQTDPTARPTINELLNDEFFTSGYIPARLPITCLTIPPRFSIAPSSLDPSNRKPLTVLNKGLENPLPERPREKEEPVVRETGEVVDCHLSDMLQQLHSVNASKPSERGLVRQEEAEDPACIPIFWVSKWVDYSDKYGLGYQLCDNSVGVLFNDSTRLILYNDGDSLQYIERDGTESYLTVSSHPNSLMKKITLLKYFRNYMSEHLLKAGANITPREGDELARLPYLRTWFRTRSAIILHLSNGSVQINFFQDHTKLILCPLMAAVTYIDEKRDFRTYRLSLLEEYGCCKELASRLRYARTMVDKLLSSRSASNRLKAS
Procedure: as §1

ALK3/BMPR1A = ALK3/BMPR1A (Homo sapiens, UniProt P36894); conditions: duplicate measurements, Km ATP
Sequence of ALK3/BMPR1A (P36894 whole entry): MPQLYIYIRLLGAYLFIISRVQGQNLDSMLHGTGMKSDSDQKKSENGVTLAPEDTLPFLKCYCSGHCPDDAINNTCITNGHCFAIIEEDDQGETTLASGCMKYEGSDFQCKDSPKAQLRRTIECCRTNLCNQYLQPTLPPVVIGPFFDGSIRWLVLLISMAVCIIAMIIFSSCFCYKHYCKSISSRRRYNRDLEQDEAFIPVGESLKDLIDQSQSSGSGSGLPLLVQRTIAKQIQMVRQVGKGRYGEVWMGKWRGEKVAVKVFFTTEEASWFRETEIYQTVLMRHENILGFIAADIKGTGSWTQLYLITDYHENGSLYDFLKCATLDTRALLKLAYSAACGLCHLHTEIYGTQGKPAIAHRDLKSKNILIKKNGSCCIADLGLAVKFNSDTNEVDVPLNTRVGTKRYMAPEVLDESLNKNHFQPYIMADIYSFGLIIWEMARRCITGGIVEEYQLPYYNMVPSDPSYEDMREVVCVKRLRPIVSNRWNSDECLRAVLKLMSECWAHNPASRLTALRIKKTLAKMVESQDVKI
Procedure: as §1

[1] = read-out: % Enzyme Activity (relative to DMSO controls) / TP-0005801 (0.3µM) / Data 1
[2] = read-out: % Enzyme Activity (relative to DMSO controls) / TP-0005801 (0.3µM) / Data 2

Compound `COc1cc(N2CCN(C)CC2)c(C)cc1Nc1ncc(Br)c(Nc2cccnc2N(C)C)n1` [TP-5801] has a remaining activity at 0.3 µM (CK1a1L; [1]) of 101%, a remaining activity at 0.3 µM (CK1a1L; [2]) of 99.8% and a remaining activity at 0.3 µM (TRKC; [1]) of 109%. The remaining activity at 0.3 µM (TRKC; [2]) was 104%, the remaining activity at 0.3 µM (LCK; [1]) was 101% and the remaining activity at 0.3 µM (LCK; [2]) was 99.4%. For the same compound, the remaining activity at 0.3 µM (ITK; [1]) was 107%, the remaining activity at 0.3 µM (ITK; [2]) was 103% and the remaining activity at 0.3 µM (ARK5/NUAK1) was 14.2%. The remaining activity at 0.3 µM (NEK7; [1]) was 90.2%, the remaining activity at 0.3 µM (NEK7; [2]) was 89.5% and the remaining activity at 0.3 µM (ZAK/MLTK; [1]) was 103%. The remaining activity at 0.3 µM (ZAK/MLTK; [2]) was 101%, the remaining activity at 0.3 µM (FGFR3; [1]) was 107% and the remaining activity at 0.3 µM (FGFR3; [2]) was 105%. It also gave a remaining activity at 0.3 µM (CK1d; [1]) of 101%, a remaining activity at 0.3 µM (CK1d; [2]) of 98.4% and a remaining activity at 0.3 µM (FLT4/VEGFR3; [1]) of 35.2%. The remaining activity at 0.3 µM (FLT4/VEGFR3; [2]) was 35.1%, the remaining activity at 0.3 µM (NEK5; [1]) was 98.5% and the remaining activity at 0.3 µM (NEK5; [2]) was 96.9%. It also gave a remaining activity at 0.3 µM (FGFR1; [1]) of 83.9%, a remaining activity at 0.3 µM (FGFR1; [2]) of 83.3% and a remaining activity at 0.3 µM (TAK1; [1]) of 103%. The remaining activity at 0.3 µM (TAK1; [2]) was 102%, the remaining activity at 0.3 µM (HGK/MAP4K4; [1]) was 103% and the remaining activity at 0.3 µM (HGK/MAP4K4; [2]) was 102%. It also gave a remaining activity at 0.3 µM (CAMK2a; [1]) of 8.85%, a remaining activity at 0.3 µM (CAMK2a; [2]) of 8.25% and a remaining activity at 0.3 µM (CLK4; [1]) of 30.4%. The remaining activity at 0.3 µM (CLK4; [2]) was 30.2%, the remaining activity at 0.3 µM (DYRK3; [1]) was 126% and the remaining activity at 0.3 µM (DYRK3; [2]) was 124%. The remaining activity at 0.3 µM (CDK1/cyclin B) was 103%, the remaining activity at 0.3 µM (PLK1; [1]) was 88.7% and the remaining activity at 0.3 µM (PLK1; [2]) was 87.8%. The remaining activity at 0.3 µM (ALK3/BMPR1A; [1]) was 105% and the remaining activity at 0.3 µM (ALK3/BMPR1A; [2]) was 100%.
